Tests used:
GCGR = GCGR (Homo sapiens, UniProt P47871); experiment: GCGR activation CRE-Luc reporter assay in vitro; assay type: cell-based
human serum albumin = human serum albumin (human, UniProt P02768 25-609); experiment: ITC

GCGR, sequence (P47871 26-477): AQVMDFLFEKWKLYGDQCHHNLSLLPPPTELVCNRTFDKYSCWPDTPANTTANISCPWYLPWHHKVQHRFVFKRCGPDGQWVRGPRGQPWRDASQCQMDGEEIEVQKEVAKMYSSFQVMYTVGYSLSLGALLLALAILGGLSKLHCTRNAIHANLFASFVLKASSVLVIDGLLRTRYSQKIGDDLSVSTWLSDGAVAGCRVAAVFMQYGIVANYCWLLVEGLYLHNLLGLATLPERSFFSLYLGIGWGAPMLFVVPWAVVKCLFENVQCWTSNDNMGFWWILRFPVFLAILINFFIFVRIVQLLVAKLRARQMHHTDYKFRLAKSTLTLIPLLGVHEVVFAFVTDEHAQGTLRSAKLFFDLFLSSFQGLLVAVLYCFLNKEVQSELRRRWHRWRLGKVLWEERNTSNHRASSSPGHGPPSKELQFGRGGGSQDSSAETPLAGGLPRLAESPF

Molecule	EC50 (GCGR) [µM]	Kd (human serum albumin) [µM]
CCCCCCCCCCCCCCCC(=O)N[C@@H](CCC(=O)NCCCC[C@H](NC(=O)[C@H](C)NC(=O)[C@H](C)NC(=O)[C@H](CCC(N)=O)NC(=O)CNC(=O)[C@H](CCC(=O)O)NC(=O)[C@H](CC(C)C)NC(=O)[C@H](Cc1ccc(O)cc1)NC(=O)[C@H](CO)NC(=O)[C@H](CO)NC(=O)[C@@H](NC(=O)[C@H](CC(=O)O)NC(=O)[C@H](CO)NC(=O)[C@@H](NC(=O)[C@H](Cc1ccccc1)NC(=O)[C@@H](NC(=O)CNC(=O)[C@H](CCC(=O)O)NC(=O)[C@H](C)NC(=O)[C@@H](N)Cc1cnc[nH]1)[C@@H](C)O)[C@@H](C)O)C(C)C)C(=O)N[C@@H](CCC(=O)O)C(=O)N[C@@H](Cc1ccccc1)C(=O)N[C@H](C(=O)N[C@@H](C)C(=O)N[C@@H](Cc1c[nH]c2ccccc12)C(=O)N[C@@H](CC(C)C)C(=O)N[C@H](C(=O)N[C@@H](CCCNC(=N)N)C(=O)NCC(=O)N[C@@H](CCCNC(=N)N)C(=O)NCC(=O)O)C(C)C)[C@@H](C)CC)C(=O)O [Liraglutide, liraglutide]	> 1	
GGSGSG [6-amino acid linker GGSGSG]		805

From publication PMC10935026 (Acta Pharmaceutica Sinica. B, 2023)
